One assay has as its target EZH2 enzyme complex (Homo sapiens (Human), UniProt Q15910). In words: Test on EZH2 inhibitory activity (TR-FRET). It is filed as biochemical. The settings on record: EZH2 enzyme complex 25 ng/uL, histone H3 peptide 4 uM, SAM 2 uM, 300 min; read-out: IC50 of EZH2 inhibition.
A further assay concerns Pfeiffer. Put plainly: Methylated lysine of histone-H3 (H3K27Me3) detection by ELISA, Pfeiffer cells. It is filed as cell-based, human. The note with it: Homo sapiens, 168 h, 7 days treatment, H3K27Me3 normalized to total histone-3, read-out: IC50 of cell methylation, Pfeiffer. In outline: (§1)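 Cells were treated 7 days with compound (4-fold dilutions, 20 uM-0.009 nM), then lysed hypotonically with NaCl adjusted to ~100 mM. Lysate-coated plates were probed by ELISA for H3K27Me3 and total H3 (TMB, A450). Methylation signal was normalised to total H3 before curve fitting.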

For the next assay, the system named is WSU-DLCL2. Put plainly: Methylated lysine of histone-H3 (H3K27Me3) detection by ELISA, WSU-DLCL2 cells. It is filed as cell-based. The note with it: Homo sapiens, WSUDLCL2, 168 h; WSU-DLCL2, 7 days treatment, H3K27Me3 normalized to total histone-3; read-out: IC50 of cell methylation, WSU-DLCL2. In outline:
as §1

Where only a bound is given, the exact number is not on record here.

EZH2 enzyme complex, sequence (Q15910 whole entry): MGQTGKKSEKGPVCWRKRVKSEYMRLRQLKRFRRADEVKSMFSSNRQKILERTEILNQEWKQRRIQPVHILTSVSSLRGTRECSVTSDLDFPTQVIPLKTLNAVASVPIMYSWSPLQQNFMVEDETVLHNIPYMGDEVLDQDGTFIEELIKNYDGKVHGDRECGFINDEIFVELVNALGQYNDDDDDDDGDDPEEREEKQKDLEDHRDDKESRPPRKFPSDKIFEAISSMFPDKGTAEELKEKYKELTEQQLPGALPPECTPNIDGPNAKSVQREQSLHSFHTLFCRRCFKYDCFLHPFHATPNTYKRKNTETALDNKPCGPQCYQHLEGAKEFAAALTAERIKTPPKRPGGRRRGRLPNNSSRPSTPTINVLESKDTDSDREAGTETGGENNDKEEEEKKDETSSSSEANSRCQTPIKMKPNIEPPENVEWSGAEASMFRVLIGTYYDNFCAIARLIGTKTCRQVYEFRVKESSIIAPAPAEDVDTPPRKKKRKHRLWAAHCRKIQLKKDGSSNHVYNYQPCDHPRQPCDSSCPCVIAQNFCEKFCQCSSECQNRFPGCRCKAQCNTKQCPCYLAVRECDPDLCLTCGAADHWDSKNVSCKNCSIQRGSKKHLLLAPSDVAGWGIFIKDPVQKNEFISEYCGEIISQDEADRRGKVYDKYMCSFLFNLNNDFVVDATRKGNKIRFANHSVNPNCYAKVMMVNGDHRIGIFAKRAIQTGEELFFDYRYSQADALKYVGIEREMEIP
EZH2 enzyme complex, sequence (O75530 whole entry partner): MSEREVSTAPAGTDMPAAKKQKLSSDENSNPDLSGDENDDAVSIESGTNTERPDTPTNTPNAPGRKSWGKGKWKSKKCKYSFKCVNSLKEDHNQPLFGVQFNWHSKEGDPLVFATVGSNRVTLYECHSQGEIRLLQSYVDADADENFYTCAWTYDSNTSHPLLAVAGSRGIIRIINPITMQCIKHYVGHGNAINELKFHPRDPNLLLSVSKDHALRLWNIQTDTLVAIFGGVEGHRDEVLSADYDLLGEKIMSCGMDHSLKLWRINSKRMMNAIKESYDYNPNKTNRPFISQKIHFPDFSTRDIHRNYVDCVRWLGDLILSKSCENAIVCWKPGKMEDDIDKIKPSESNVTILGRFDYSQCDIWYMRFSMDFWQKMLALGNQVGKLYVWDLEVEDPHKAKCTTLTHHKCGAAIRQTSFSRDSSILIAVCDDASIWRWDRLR
EZH2 enzyme complex, sequence (Q15022 whole entry partner): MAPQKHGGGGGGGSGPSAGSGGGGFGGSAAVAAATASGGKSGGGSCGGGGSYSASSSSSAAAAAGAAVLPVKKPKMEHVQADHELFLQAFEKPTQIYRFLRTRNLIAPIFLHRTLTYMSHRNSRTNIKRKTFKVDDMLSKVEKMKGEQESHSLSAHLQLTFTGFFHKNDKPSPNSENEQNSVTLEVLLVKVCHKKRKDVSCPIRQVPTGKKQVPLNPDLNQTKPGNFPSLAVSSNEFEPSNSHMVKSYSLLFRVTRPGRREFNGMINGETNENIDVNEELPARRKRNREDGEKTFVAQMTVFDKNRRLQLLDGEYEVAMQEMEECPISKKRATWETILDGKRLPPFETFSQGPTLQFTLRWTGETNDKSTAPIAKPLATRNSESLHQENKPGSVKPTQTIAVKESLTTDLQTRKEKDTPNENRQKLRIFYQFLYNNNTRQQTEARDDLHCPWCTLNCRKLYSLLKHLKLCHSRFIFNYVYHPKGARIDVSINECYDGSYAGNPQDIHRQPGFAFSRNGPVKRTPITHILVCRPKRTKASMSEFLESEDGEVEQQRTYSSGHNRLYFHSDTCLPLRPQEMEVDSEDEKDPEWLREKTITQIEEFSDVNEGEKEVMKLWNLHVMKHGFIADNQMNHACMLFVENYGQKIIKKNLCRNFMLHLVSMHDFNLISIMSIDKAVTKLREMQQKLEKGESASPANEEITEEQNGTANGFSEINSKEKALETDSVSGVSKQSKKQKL

On to `CCN1CCN([C@H]2C[C@H](Oc3cc(C(=O)NCc4c(C)cc(C)[nH]c4=O)c(C)c(N(CC)C4CCOCC4)c3)C2)CC1` [Example 24, N-((4,6-dimethyl-2-oxo-1,2-dihydropyridin-3-yl)methyl)-3-(ethyl(tetrahydro-2H-pyran-4-yl)amino)-5-(trans-3-(4-ethylpiperazin-1-yl)cyclobutoxy)-2-methylbenzamide], for which the results for the IC50 on EZH2 enzyme complex, in the assay on Pfeiffer and in the assay with WSU-DLCL2 were less than 10 nM, less than 50 nM and 50 to 500 nM, respectively.
Regarding `CCN(c1cc(O[C@H]2C[C@@H](N3CCNCC3)C2)cc(C(=O)NCc2c(C)cc(C)[nH]c2=O)c1C)C1CCOCC1` [Example 17, N-((4,6-dimethyl-2-oxo-1,2-dihydropyridin-3-yl)methyl)-3-(ethyl(tetrahydro-2H-pyran-4-yl)amino)-2-methyl-5-(cis-3-(piperazin-1-yl)cyclobutoxy)benzamide], the concentration for half-maximal inhibition (IC50) at EZH2 enzyme complex was less than 10 nM; with Pfeiffer, less than 50 nM; in the assay with WSU-DLCL2 it was 50 to 500 nM.
In the case of `CCN(c1cc(O[C@H]2C[C@@H](N3CCN(S(C)(=O)=O)CC3)C2)cc(C(=O)NCc2c(C)cc(C)[nH]c2=O)c1C)C1CCOCC1` [Example 27, N-((4,6-dimethyl-2-oxo-1,2-dihydropyridin-3-yl)methyl)-3-(ethyl(tetrahydro-2H-pyran-4-yl)amino)-2-methyl-5-(cis-3-(4-(methylsulfonyl)piperazin-1-yl)cyclobutoxy)benzamide], the values for the IC50 at EZH2 enzyme complex, in the assay on Pfeiffer and in the assay on WSU-DLCL2 were less than 10 nM, less than 50 nM and less than 50 nM, respectively.
Turning to `CCN(c1cc(O[C@H]2C[C@H](CN3C[C@@H](C)O[C@@H](C)C3)C2)cc(C(=O)NCc2c(C)cc(C)[nH]c2=O)c1C)C1CCOCC1` [Example 31, N-((4,6-dimethyl-2-oxo-1,2-dihydropyridin-3-yl)methyl)-5-(trans-3-((cis-2,6-dimethylmorpholinyl)methyl)cyclobutoxy)-3-(ethyl(tetrahydro-2H-pyran-4-yl)amino)-2-methylbenzamide], the 50% inhibitory concentration (IC50) at EZH2 enzyme complex is 10 to 100 nM; in the assay on Pfeiffer it was less than 50 nM; in the assay with WSU-DLCL2, less than 50 nM.
Turning to `CCN(c1cc(OC2CCC2)cc(C(=O)NCc2c(C)cc(C)[nH]c2=O)c1Cl)C1CCOCC1` [Example 11, 2-chloro-5-cyclobutoxy-N-((4,6-dimethyl-2-oxo-1,2-dihydropyridin-3-yl)methyl)-3-(ethyl(tetrahydro-2H-pyran-4-yl)amino) benzamide], the IC50 on EZH2 enzyme complex lay within 10 to 100 nM; in the assay on Pfeiffer it was 50 to 500 nM; with WSU-DLCL2, 50 to 500 nM.
Consider `CCN(c1cc(C2CC2CN2CCC(F)CC2)cc(C(=O)NCc2c(C)cc(C)[nH]c2=O)c1C)C1CCOCC1` (stereo not drawn) [Example 79, N-((4,6-dimethyl-2-oxo-1,2-dihydropyridin-3-yl)methyl)-3-(ethyl(tetrahydro-2H-pyran-4-yl)amino)-5-(2-((4-fluoropiperidin-1-yl)methyl)cyclopropyl)-2-methylbenzamide], for which the IC50 at EZH2 enzyme complex was 10 to 100 nM; in the assay with Pfeiffer, less than 50 nM; in the assay on WSU-DLCL2, 50 to 500 nM.
As for `CCN(c1cc(O[C@H]2C[C@@H](N3CCN(C(C)C)CC3)C2)cc(C(=O)NCc2c(C)cc(C)[nH]c2=O)c1C)C1CCOCC1` [Example 21, N-((4,6-dimethyl-2-oxo-1,2-dihydropyridin-3-yl)methyl)-3-(ethyl(tetrahydro-2H-pyran-4-yl)amino)-5-(cis-3-(4-isopropylpiperazin-1-yl)cyclobutoxy)-2-methylbenzamide], the results for the concentration for half-maximal inhibition (IC50) at EZH2 enzyme complex, with Pfeiffer and in the assay with WSU-DLCL2 were 10 to 100 nM, less than 50 nM and 50 to 500 nM, respectively.
Consider `CCN(c1cc(O[C@H]2C[C@H](N3C[C@@H](C)O[C@@H](C)C3)C2)cc(C(=O)NCc2c(C)cc(C)[nH]c2=O)c1C)[C@H]1C[C@@H](C)O[C@@H](C)C1` [Example 35, N-((4,6-dimethyl-2-oxo-1,2-dihydropyridin-3-yl)methyl)-5-(trans-3-(cis-2,6-dimethylmorpholinyl)cyclobutoxy)-3-((cis-2,6-dimethyltetrahydro-2H-pyran-4-yl)(ethyl)amino)-2-methylbenzamide], for which the IC50 on EZH2 enzyme complex is 10 to 100 nM; in the assay on Pfeiffer, 50 to 500 nM; in the assay on WSU-DLCL2, more than 1000 nM.
Taken in the same sequence, the figures for `CCN(c1cc(C2CC2CN2CCCCC2)cc(C(=O)NCc2c(C)cc(C)[nH]c2=O)c1C)C1CCOCC1` (stereo not drawn) [Example 77, N-((4,6-dimethyl-2-oxo-1,2-dihydropyridin-3-yl)methyl)-3-(ethyl(tetrahydro-2H-pyran-4-yl)amino)-2-methyl-5-(2-(piperidin-1-ylmethyl)cyclopropyl)benzamide] were 10 to 100 nM, less than 50 nM and 50 to 500 nM.
Regarding `CCN(c1cc(O[C@H]2C[C@H](N3CCC(C)CC3)C2)cc(C(=O)NCc2c(C)cc(C)[nH]c2=O)c1C)C1CCOCC1` [Example 37, N-((4,6-dimethyl-2-oxo-1,2-dihydropyridin-3-yl)methyl)-3-(ethyl(tetrahydro-2H-pyran-4-yl)amino)-2-methyl-5-(trans-3-(4-methylpiperidin-1-yl)cyclobutoxy)benzamide], the IC50 at EZH2 enzyme complex was less than 10 nM; in the assay on Pfeiffer, less than 50 nM; in the assay with WSU-DLCL2, 50 to 500 nM.
For `Cc1cc(C)c(CNC(=O)c2cc(O[C@H]3C[C@H](N4C[C@@H](C)O[C@@H](C)C4)C3)cc(NC3CCOC3)c2C)c(=O)[nH]1` (stereo partly drawn) [Example 58, N-((4,6-dimethyl-2-oxo-1,2-dihydropyridin-3-yl)methyl)-5-(trans-3-(cis-2,6-dimethylmorpholino)cyclobutoxy)-2-methyl-3-((tetrahydrofuran-3-yl)amino)benzamide], the half-maximal inhibitory concentration (IC50) on EZH2 enzyme complex, in the assay with Pfeiffer and with WSU-DLCL2 was more than 1000 nM in each case.
With `CCN(c1cc(C2CC2CN2CCN(C)CC2)cc(C(=O)NCc2c(C)cc(C)[nH]c2=O)c1C)C1CCOCC1` (stereo not drawn) [Example 74, N-((4,6-dimethyl-2-oxo-1,2-dihydropyridin-3-yl)methyl)-3-(ethyl(tetrahydro-2H-pyran-4-yl)amino)-2-methyl-5-(2-((4-methylpiperazin-1-yl)methyl)cyclopropyl)benzamide], the figures for the half-inhibitory concentration (IC50) at EZH2 enzyme complex, with Pfeiffer and with WSU-DLCL2 were 10 to 100 nM, less than 50 nM and 50 to 500 nM, respectively.
As for `CCN(c1cc(O[C@H]2C[C@@H](N3CCN(C(C)=O)CC3)C2)cc(C(=O)NCc2c(C)cc(C)[nH]c2=O)c1C)C1CCOCC1` [Example 25, cis-5-(3-(4-acetylpiperazin-1-yl)cyclobutoxy)-N-((4,6-dimethyl-2-oxo-1,2-dihydropyridin-3-yl)methyl)-3-(ethyl(tetrahydro-2H-pyran-4-yl)amino)-2-methylbenzamide], the IC50 at EZH2 enzyme complex is 10 to 100 nM; in the assay with Pfeiffer it was less than 50 nM; with WSU-DLCL2, less than 50 nM.
Take `CCN(c1cc([S+]([O-])C2CCC2)cc(C(=O)NCc2c(C)cc(C)[nH]c2=O)c1C)C1CCOCC1` (stereo not drawn) [Example 9, 5-(cyclobutylsulfinyl)-N-((4,6-dimethyl-2-oxo-1,2-dihydropyridin-3-yl)methyl)-3-(ethyl(tetrahydro-2H-pyran-4-yl)amino)-2-methylbenzamide]: the results for the IC50 at EZH2 enzyme complex, in the assay on Pfeiffer and with WSU-DLCL2 were 100 to 1000 nM, 500 to 1000 nM and 500 to 1000 nM, respectively.
As to `CCN(c1cc(OC2CC(N3CCOCC3)C2)cc(C(=O)NCc2c(C)cc(C)[nH]c2=O)c1C)[C@H]1CC[C@H](N(C)CCOC)CC1` (stereo partly drawn) [Example 34, N-((4,6-dimethyl-2-oxo-1,2-dihydropyridin-3-yl)methyl)-3-(ethyl(trans-4-((2-methoxyethyl)(methyl)amino)cyclohexyl)amino)-2-methyl-5-(3-morpholinylcyclobutoxy)benzamide], the IC50 at EZH2 enzyme complex was 10 to 100 nM; in the assay with Pfeiffer, less than 50 nM; with WSU-DLCL2 it was 500 to 1000 nM.
On the same counts, the results for `Cc1cc(C)c(CNC(=O)c2cc(O[C@H]3C[C@H](N4C[C@@H](C)O[C@@H](C)C4)C3)cc(NC3CCOCC3)c2C)c(=O)[nH]1` [Example 57, N-((4,6-dimethyl-2-oxo-1,2-dihydropyridin-3-yl)methyl)-5-(trans-3-(cis-2,6-dimethylmorpholino)cyclobutoxy)-2-methyl-3-((tetrahydro-2H-pyran-4-yl)amino)benzamide] are more than 1000 nM, more than 1000 nM and more than 1000 nM.
For `CCN(c1cc(O[C@H]2C[C@H](N3CCN(S(C)(=O)=O)CC3)C2)cc(C(=O)NCc2c(C)cc(C)[nH]c2=O)c1C)C1CCOCC1` [Example 28, N-((4,6-dimethyl-2-oxo-1,2-dihydropyridin-3-yl)methyl)-3-(ethyl(tetrahydro-2H-pyran-4-yl)amino)-2-methyl-5-(trans-3-(4-(methylsulfonyl)piperazin-1-yl)cyclobutoxy)benzamide], the results for the IC50 on EZH2 enzyme complex, with Pfeiffer and in the assay with WSU-DLCL2 were 10 to 100 nM, less than 50 nM and less than 50 nM, respectively.
For the compound `CCN(c1cc(C2CC2CN2C[C@@H](C)O[C@@H](C)C2)cc(C(=O)NCc2c(C)cc(C)[nH]c2=O)c1C)C1CCOCC1` (stereo partly drawn) [Example 75, N-((4,6-dimethyl-2-oxo-1,2-dihydropyridin-3-yl)methyl)-5-(2-((cis-2,6-dimethylmorpholinyl)methyl)cyclopropyl)-3-(ethyl(tetrahydro-2H-pyran-4-yl)amino)-2-methylbenzamide], the IC50 at EZH2 enzyme complex is 10 to 100 nM; with Pfeiffer it was less than 50 nM; in the assay on WSU-DLCL2, more than 1000 nM.
As to `CCN(c1cc(O[C@H]2C[C@H](N3CCN(C(C)C)CC3)C2)cc(C(=O)NCc2c(C)cc(C)[nH]c2=O)c1C)C1CCOCC1` [Example 22, N-((4,6-dimethyl-2-oxo-1,2-dihydropyridin-3-yl)methyl)-3-(ethyl(tetrahydro-2H-pyran-4-yl)amino)-5-(trans-3-(4-isopropylpiperazin-1-yl)cyclobutoxy)-2-methylbenzamide], the IC50 at EZH2 enzyme complex is 10 to 100 nM; in the assay with Pfeiffer it was less than 50 nM; in the assay on WSU-DLCL2, 50 to 500 nM.
